What was measured:
[1] = target: T1, human serotonin 5-HT2A receptor (Homo sapiens, UniProt P28223); type: cell-based; conditions: 5-HT2A
T1 construct: host or cells: CHO-K1
Method: (§3) Tested and reference compounds were dissolved in dimethyl sulfoxide (DMSO) at a concentration of 10 mM. Serial dilutions were prepared in a 96-well microplate in assay buffer, and 8 to 10 concentrations were tested. […] The assay was executed according to the previously described protocol [45]. After thawing, cells were transferred to assay buffer (DMEM/HAM’s F12 with 0.1% protease-free BSA) and centrifuged. The cell pellet was resuspended in assay buffer, and coelenterazine h was added at final concentrations of 5 µM. The cell suspension was incubated at 16 °C (or 21 °C), protected from light with constant agitation for 16 h (or 4 h), and then diluted with assay buffer to the concentration of 100,000 cells/mL (or 250,000 cells/mL). After 1 h of incubation, 50 µL of the cell’s suspension was dispensed using automatic injectors built into the radiometric and luminescence plate counter MicroBeta2 LumiJET (PerkinElmer, Waltham, NA, USA) into white opaque 96-well microplates preloaded with test compounds. Immediate light emission generated following calcium mobilization was recorded for 30 s. In antagonist mode, after 25–30 min of incubation, the reference agonist was added to the above assay mix, and light emission was re-recorded. […] IC50 and EC50 values were calculated.

mice [2] = assay: Marble burying test in mice; type: in vivo
Method: Figure 3 The effect of JJGW08 and aripiprazole on the number of buried marbles by mice. Mice were placed individually in cages with a 5 cm bedding layer, where 20 glass balls were placed. The number of buried marbles after 30 min of the test was counted. JJGW08 was administered intraperitoneally (ip) 30 min before the test. The control group received 0.9% NaCl solution (ip) or 1% Tween (ip) for aripiprazole. Values are expressed as means ± SD in the case of one-way ANOVA (aripiprazole) or median with interquartile range in the case of Kruskal–Wallis test (JJGW08), n = 8–10 mice per group. Statistical analysis: one-way ANOVA (Newman–Keuls post hoc), and Kruskal–Wallis test (Dunn post hoc), * p < 0.05, ** p < 0.01, *** p < 0.001.
The test was conducted according to the method described by Broekkamp et al. with minor modifications. Mice were placed individually in plastic cages, identical to their home cages, that contained a layer of bedding and 20 glass balls (1.6 cm in diameter) arranged in a pattern 4 × 5. After 30 min of the experiment, the mice were removed from the cages, and the number of balls buried to at least 2/3 of their size was counted.

[3] = parameters: method as in earlier work; conditions: ref 43 (Bubeníková et al.); cited from earlier work
human D2 receptor = target: T2, human D2 receptor (Homo sapiens, UniProt P14416); assay: Functional assay (aequorin, calcium mobilization) in CHO-K1 cells, D2 receptor; type: cell-based; parameters: Emax: dose or concentration left out as unconfirmed; conditions: CHO-K1, read-out: Antagonist Mode Emax%
T2 construct: host or cells: CHO-K1
Method: as §3

rats = assay: Open field test after MK-801 administration in rats (MK-801-induced hyperlocomotion); type: in vivo; conditions: MK-801 0.3 mg/kg ip
Method: Figure 4 The effect of JJGW08 and clozapine on MK-801-induced hyperlocomotion in rats. After the habituation period (30 min, 24 h before the test), locomotor activity was measured individually for each animal in the special apparatus. The walked distance (cm) was monitored at 10-min intervals for 30 min, using a computerized system that tracked the animals’ movement and behavior. JJGW08 and clozapine were administered intraperitoneally (ip) 30 or 60 min before the test, respectively, while MK-801 (0.3 mg/kg) was administered ip 15 min before the start of the experiment. The control group received 0.9% NaCl solution (ip) (or 1% Tween (ip) for clozapine) and MK-801 (0.3 mg/kg, ip). Values are expressed as mean ± SD, n = 7–8 rats per group. Statistical analysis: one-way ANOVA (Newman–Keuls post hoc) * p < 0.05, ** p < 0.01, *** p < 0.001.
The experiment was evaluated according to the method described earlier. It was performed in a soundproof chamber with a 30-min habituation period 24 h before the procedure. The open field apparatus consisted of four black, octagonal, stainless steel arenas (diameter: 80 cm) with 30 cm high walls. Each arena was divided into a peripheral and central sector. The peripheral sector was defined as the region within 20 cm from the walls. The approximate light intensity was 15 lx in the central point of the arena and 4 lx close to its walls.
Individual rats were placed in the central part of the open field and allowed to explore the whole arena for 30 min under dim light (approximately 10 lx) and continuous white noise (65 dB). Forward locomotion (cm/30 min) was registered in 10-min intervals for 30 min and analyzed with the aid of a computerized video tracking system (Videomot, TSE, Bad Homburg, Germany). The arenas were cleaned between tests with 20% (v/v) alcohol and allowed to dry.
The tested compound was administered ip 30 min before the experiment at the dose range of 0.3–30.0 mg/kg, and MK-801 (0.3 mg/kg,) was administered ip 15 min before the procedure. […]

[4] = target: T3, human serotonin 5-HT1A receptor (Homo sapiens, UniProt P08908); assay: Functional assay (aequorin, calcium mobilization) in CHO-K1 cells, 5-HT1A receptor; type: cell-based; conditions: CHO-K1, agonist mode
T3 construct: host or cells: CHO-K1
T3 sequence (P08908 1-422): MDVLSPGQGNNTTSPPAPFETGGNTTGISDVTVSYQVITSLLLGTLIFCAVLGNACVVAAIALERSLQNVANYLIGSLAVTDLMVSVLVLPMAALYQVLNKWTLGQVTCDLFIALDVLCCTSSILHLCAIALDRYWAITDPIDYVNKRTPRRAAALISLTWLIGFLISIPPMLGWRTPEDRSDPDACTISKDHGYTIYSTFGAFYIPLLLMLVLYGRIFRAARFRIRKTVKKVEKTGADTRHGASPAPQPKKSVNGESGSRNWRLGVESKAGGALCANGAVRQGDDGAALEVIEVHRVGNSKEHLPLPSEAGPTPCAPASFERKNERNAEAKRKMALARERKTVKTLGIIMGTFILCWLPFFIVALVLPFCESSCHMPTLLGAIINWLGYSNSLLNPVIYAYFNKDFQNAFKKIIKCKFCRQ
Method: as §3

mice [5] = assay: MK-801-induced hyperlocomotion test in mice; type: in vivo; conditions: MK-801 0.2 mg/kg ip
Method: (§1) Locomotor activity was recorded in actometers separately for each mouse. After 30 min of adaptation, the number of crossings of photo beams was measured during 60 min. […] MK-801 (0.2 mg/kg, ip) was administered 15 min before the experiment, while amphetamine (2.5 mg/kg) was administered subcutaneously (sc) 30 min before the experiment. […] Values are expressed as means ± SD, n = 8–10 mice per group. Statistical analysis: one-way ANOVA (Newman–Keuls post hoc), * p < 0.05, ** p < 0.01, *** p < 0.001.
(§2) The test was performed according to the method described by Carlsson et al.. The mobility of the animals was measured in actometers, i.e., in plastic Opto M3 cages (22 × 12 × 13 cm) connected to a computer with MultiDevice Software v.1.30 (Columbus Instruments, Columbus, OH, USA). The experimental cages were equipped with infrared sources on one side and sensors receiving the emitted rays on the other side of the cage. The crossing of each beam of infrared rays was classified as motor activity. The animals were placed individually in experimental cages immediately after administration of the tested compound, 30 min before the start of the test, to adapt to the new conditions and exclude the occurrence of hyperactivity caused by the change of the environment. Spontaneous locomotor activity was measured every 5 min for 60 min. Mice received two injections: of the tested compound or reference substance (30 min before the test, ip) and of amphetamine (2.5 mg/kg, 30 min before the test, sc) or MK-801 (0.2 mg/kg, 15 min before the test, ip). Control groups received an injection of saline and amphetamine or MK-801, or two injections of saline, respectively. Olanzapine was used as a reference compound.

mice [6] = assay: Amphetamine-induced hyperlocomotion test in mice; type: in vivo; conditions: amphetamine 2.5 mg/kg sc
Method: as §1, §2

T1 sequence (P28223 whole entry): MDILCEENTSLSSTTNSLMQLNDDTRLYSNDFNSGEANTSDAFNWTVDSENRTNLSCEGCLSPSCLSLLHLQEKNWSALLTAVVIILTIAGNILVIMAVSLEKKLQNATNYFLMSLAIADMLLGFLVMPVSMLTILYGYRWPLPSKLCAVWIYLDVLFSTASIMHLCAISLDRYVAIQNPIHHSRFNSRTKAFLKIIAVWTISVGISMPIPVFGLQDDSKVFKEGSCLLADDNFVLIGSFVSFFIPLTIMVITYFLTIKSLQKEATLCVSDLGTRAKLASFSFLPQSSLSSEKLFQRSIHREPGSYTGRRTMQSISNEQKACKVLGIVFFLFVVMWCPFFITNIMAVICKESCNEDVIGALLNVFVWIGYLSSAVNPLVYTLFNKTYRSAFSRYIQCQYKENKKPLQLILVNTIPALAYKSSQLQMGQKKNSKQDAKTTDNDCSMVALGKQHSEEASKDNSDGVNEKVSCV
T2 sequence (P14416 whole entry): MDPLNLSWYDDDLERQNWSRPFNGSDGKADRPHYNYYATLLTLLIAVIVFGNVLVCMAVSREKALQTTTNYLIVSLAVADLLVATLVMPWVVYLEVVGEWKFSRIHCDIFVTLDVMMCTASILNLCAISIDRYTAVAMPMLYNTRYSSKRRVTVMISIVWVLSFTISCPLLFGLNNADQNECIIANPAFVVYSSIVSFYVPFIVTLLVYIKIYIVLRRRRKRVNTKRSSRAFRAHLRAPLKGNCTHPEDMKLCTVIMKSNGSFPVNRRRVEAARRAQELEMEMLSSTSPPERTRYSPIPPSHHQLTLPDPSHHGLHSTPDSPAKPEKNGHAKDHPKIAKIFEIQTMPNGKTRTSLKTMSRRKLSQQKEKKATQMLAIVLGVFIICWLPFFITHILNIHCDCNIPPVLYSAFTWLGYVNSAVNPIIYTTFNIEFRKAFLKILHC

In the case of `CC(N)Cc1c[nH]c2ccc(O)cc12` (stereo not drawn) [α-methylserotonin, reference compound], the “Agonist Mode Emax%” value ([1]; agonist mode) is reported as 100%, the “Agonist Mode pEC50 ± Range” value ([1]; agonist mode) is reported as 8.5 ± 0.3 and the “Antagonist Mode Emax%” value ([1]; antagonist mode, 30 nM α-methylserotonin as reference agonist) is reported as 2%.

For `O=C1CCc2ccc(OCCCCN3CCN(c4cccc(Cl)c4Cl)CC3)cc2N1` [aripiprazole], the “reduction of the number of buried marbles” value (mice [2]; 1.25 mg/kg ip) was 61%, the “reduction of the number of buried marbles” value (mice [2]; 2.5 mg/kg ip) was 69% and the “reduction of the number of buried marbles” value (mice [2]; 5.0 mg/kg ip) was 93%.

For `Cc1nc2n(c(=O)c1CCN1CCC(c3noc4cc(F)ccc34)CC1)CCCC2` [risperidone], the “effect on MK-801-induced deficits in the prepulse inhibition test (in words)” value [3] is given as “ineffective”.

For `CN1CCc2cccc3c2[C@H]1Cc1ccc(O)c(O)c1-3` [Apomorphine, reference compound], the Emax (human D2 receptor) was 0%.

For `CN1CCN(C2=Nc3cc(Cl)ccc3Nc3ccccc32)CC1` [clozapine], the “reduction of MK-801-induced hyperlocomotion in the open field” value (rats; 10 mg/kg ip) is listed as 53%, the “reduction of MK-801-induced hyperlocomotion in the open field” value (rats; 30 mg/kg ip) is listed as 98% and the “effect on MK-801-induced deficits in the prepulse inhibition test (in words)” value [3] is listed as “restored”.

Compound `COc1ccccc1N1CCN(CCCCN2C(=O)c3ccccc3C2=O)CC1` [NAN-190, reference compound] has an Emax [4] of 6%.

With `Cc1cc2c(s1)Nc1ccccc1N=C2N1CCN(C)CC1` [Olanzapine] the “reduction of MK-801-induced hyperlocomotion” value (mice [5]; 0.03 mg/kg ip) was 63%, the “reduction of MK-801-induced hyperlocomotion” value (mice [5]; 0.3 mg/kg ip) was 82% and the “reduction of amphetamine-induced hyperlocomotion” value (mice [6]; 0.03 mg/kg ip) was 54%. For the same compound, the “reduction of amphetamine-induced hyperlocomotion” value (mice [6]; 0.3 mg/kg ip) was 75% and the “effect on MK-801-induced deficits in the prepulse inhibition test (in words)” value [3] was “restored”.
